Laboratory results: patent US4780466A, “Arylpiperazinylalkoxy derivatives of cyclic imides” (Hoechst-Roussel Pharmaceuticals, Inc., priority 1988, dated 1988)
Structures can show the parent of a compound that is named as a salt.

Key:
Type in all cases: in vivo
[1] = tested on: mice; assay: 2-phenyl-1,4-benzoquinone-induced writhing test in mice (analgesic activity); details: Mus musculus, sc, read-out: Phenylquinone Writhing ED50
Text: Compounds of the present invention are also useful as analgesic agents due to their ability to alleviate pain in mammals. […] Exptl. Biol. Med., 95,729 (1957)]

[2] = tested on: rats; assay: Geller-conflict paradigm with rats (anxiolytic activity); details: 10 mg/kg i.p.; pretreat interval usually one-half hour; male rats
Text: Compounds I of the present invention are also useful as anxiolytic agents. […] See Geller, Irving and Seifter, Psychopharmacologia Col. 1, 482-492 (1962). Male rats are used as test subjects. They are housed individually and food and water are available ad libitum until they are 300 to 400 grams prior to the start of training. Subsequently they are food deprived until their body weight is reduced to approximately 80% of original and it is maintained at this level by a restricted food diet.
The programming and test equipment consists of solid state devices, shockers and cages within sound-attentuated environmental enclosures. The data is recorded on both solid state print-out counters and cumulative recorders. The cages are equipped with a house-light, a single-lever, cue-lights, a liquid dipper, a speaker and a grid-floor connected to a shocker. Sweetened condensed milk delivered by the liquid-dipper serve as the positive reinforcement for all subjects.
The subjects are trained to lever-press for the milk reward in two distinct response-reward sections. In the anxiety or "conflict" segment, signaled by onset of both tone and cue-lights, a dipper of milk is delivered in response to each lever-press (CRF schedule of reinforcement). However lever presses during this period are also accompanied by a 40 m sec pulse of aversive footshock through the grid-floor. […]

[3] = tested on: mice; assay: Climbing mice assay (antipsychotic activity, apomorphine-induced climbing); details: Mus musculus; ip, 30 minutes prior to apomorphine 1.5 mg/kg s.c.; CK-1 male mice
Method: Antipsychotic activity is determined in the climbing mice assay by methods similar to those described by P. Protais, et al., Psychopharmacol., 50, 1 (1976) and B. Costall, Eur. J. Pharmacol., 50, 39, (1978).
The subject CK-1 male mice (23-27 grams) are group-housed under standard laboratory conditions. The mice are individually placed in wire mesh stick cages (4'×4" by 10") and are allowed one hour for adaptation and exploration of the new environment. Then apomorphine is injected subcutaneously at 1.5 mg/kg, a dose causing climbing in all subjects for 30 minutes. Compounds to be tested for antipsychotic activity are injected intraperitoneally 30 minutes prior to the apomorphine challenge at a screening dose of 10 mg/kg.
For evaluation of climbing, 3 readings are taken at 10, 20 and 30 minutes after apomorphine administration according to the following scale:
4 paws on bottom (no climbing)
2 paws on the wall (rearing)
4 paws on the wall (full climb)
Mice consistently climbing before the injection of apomorphine are discarded.
With full-developed apomorphine climbing, the animals are hanging onto the cage walls, rather motionless, over longer periods of time. By constrast, climbs due to mere motor stimulation usually last only a few seconds.
The climbing scores are individually totaled (maximum score: 6 per mouse over 3 readings) and the total score of the control group (vehicle intraperitoneally; apomorphine subcutaneously) is set to 100%. ED50 values with 95% confidence limits, calculated by a linear regression analysis of some of the compounds of this invention are presented in Table 1.

In the case of COc1ccccc1N1CCN(CCCON2C(=O)CC3(CCCC3)CC2=O)CC1 [8-[3-[4-(2-Methoxyphenyl)-1-piperazinyl-propyloxy]-8-azaspiro[4.5]decan-7,9-dione hydrochloride hemihydrate], the ED50 [1] is reported as 1.1 mg/kg.

In the case of CNC1=Nc2ccc(Cl)cc2C(c2ccccc2)=[N+]([O-])C1 [Chlorodiazepoxide, reference compound], the “Geller CRF ratio” value [2] is reported as 3.6.

Compound CN1CCN(C2=Nc3cc(Cl)ccc3Nc3ccccc32)CC1 [Clazapine, reference compound] has an ED50 [3] of 8.1 mg/kg.

Cc1cccc(N2CCN(CCCON3C(=O)CC4(CCCC4)CC3=O)CC2)c1 [Example 5, 8-[3-[4-(3-Methylphenyl)-1-piperazinyl]propyloxy]-8-azaspiro[4.5]decan-7,9-dione hydrochloride hemihydrate] was tested, and the “Geller CRF ratio” value [2] was 7.5.

Work on COc1cccc(N2CCN(CCCON3C(=O)CC4(CCCC4)CC3=O)CC2)c1 [Example 8, 8-[3-[4-(3-Methoxyphenyl)-1-piperazinyl]propyloxy]-8-azaspiro-[4.5]decan-7,9-dione hydrochloride hemihydrate] yielded an ED50 [3] of 10.9 mg/kg.

With O=C1CC2(CCCC2)CC(=O)N1OCCCN1CCN(c2nsc3ccccc23)CC1 [Example 11, 8-[3-[4-(1,2-Benzisothiazol-3-yl)-1-piperazinyl]propyloxy]-8-azaspiro[4.5]decan-7,9-dione hydrochloride hemihydrate] the ED50 [1] was 0.9 mg/kg and the ED50 [3] was 5.7 mg/kg.

CC(C)=CCN1CCC2(C)c3cc(O)ccc3CC1C2C (centres unmarked) [Pentazocine, reference compound] was tested, and the ED50 [1] was 1.3 mg/kg.
